From PubChem BioAssay (NCI) come the findings set out here.

Values joined by “and” are separate entries in the source; they are usually repeats but may differ in a detail not shown here. Equal entries are not always repeated.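 In this assay, cells in 96-well plates receive the compound at five concentrations for 48 hours. Endpoints are linearly interpolated between the surrounding concentrations. GI50: concentration for 50% inhibition of growth. TGI: total growth inhibition.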

Holding throughout (test): NCI anticancer screen, dose series, 48 h
In assay [1] the test system is 786-0 renal.
The test system of assay [2] is NCI-H23 lung.
For assay [3], the system named is SR leukemia.
The subject of assay [4] is NCI-H522 lung.
Assay [5] has as its system NCI-H460 lung.
For assay [6], the system named is M14 melanoma.
The subject of assay [7] is HCT-15 colon.
In assay [8] the test system is OVCAR-3 ovarian.
Assay [9] relates to MDA-MB-231 breast.
For assay [10], the system named is SK-MEL-2 melanoma.

Consider `CCNC(=O)c1noc(-c2cc(C(C)C)c(O)cc2O)c1-c1ccc(CN2CCOCC2)cc1`, for which the GI50 in [1] is 1.98 µM; in assay [2] it was 0.0535 µM; in assay [3], 0.0407 µM; in assay [4] it was 0.0333 µM; in assay [5], below 0.0152 µM; in [6], 0.0384 µM. Besides, the GI50 is 0.0388 µM in assay [7], 0.0529 µM in [8], 0.0747 µM in assay [9] and 0.0311 µM in assay [10]. Further, the TGI turned out to be 31.5 µM in assay [1]; 27.2 µM in [2]; 29 µM in assay [3]; 13.6 µM in [4]; 14.6 µM in [5]; 18.6 µM in assay [6]. Moreover, the TGI in [7] is 19.9 µM; in assay [8] it was 19.1 µM; in assay [9], 15.7 µM; in [10] it was 8.74 µM.
With `CC(C)(C)c1cc(C=C(C#N)C#N)cc(C(C)(C)C)c1O`, the GI50 in assay [1] is 0.393 µM; in [2], 0.194 µM; in assay [3] it was 0.318 µM; in assay [4] it was 0.219 µM; in assay [5], 0.305 µM; in assay [6] it was 0.533 µM. Further, the GI50 in assay [8] was 0.456 µM; in [9] it was 0.0923 µM. The TGI was 10.9 µM and 16.4 µM in assay [1]; 12.6 µM and 11 µM in assay [3]; 2.86 µM and 1.61 µM in assay [4]; 21.9 µM in [5]; 12.1 µM and 10.7 µM in [6]; 14.1 µM and 19.9 µM in [7]. The TGI is 29.2 µM and 3.85 µM in [8]; 0.675 µM in assay [9]; 1.39 µM in assay [10].
Regarding `O=C(O)[C@@H](Cc1ccc2ccccc2c1)NC(=O)n1c2ccccc2c2ccccc21`, the GI50 in assay [1] was 0.708 µM; in assay [2] it was 3.72 µM; in assay [3], 4.12 µM; in assay [4], 0.356 µM; in assay [5] it was 3.47 µM; in [6], 3.25 µM. Also, the GI50 is 3.29 µM in assay [7], 1.81 µM in assay [8], 3.65 µM in [9] and 4.19 µM in [10]. Also, the TGI in assay [1] was 12.2 µM; in assay [2], 26.7 µM; in [3], above 100 µM; in assay [4], 2.21 µM; in assay [5], 33.5 µM; in [6], 19.5 µM. Moreover, the TGI came to 28.6 µM in assay [7], 6.78 µM in [8], 17.3 µM in assay [9] and 43.3 µM in assay [10].
In the case of `O=C(O)[C@H](c1ccccc1)[C@@H](C(=O)O)c1ccccc1`, the TGI in [1], in [2], in [3], in [4], in [5] and in assay [6] was above 100 µM throughout. Moreover, the TGI in assay [7], in assay [8], in assay [9] and in assay [10] was above 100 µM throughout.
`CCC1=CC2CN(C1)Cc1c([nH]c3ccccc13)[C@@](C(=O)OC)(c1cc3c(cc1OC)N(C)[C@H]1[C@@](O)(C(=O)OC)[C@H](OC(C)=O)[C@]4(CC)C=CCN5CC[C@]31[C@@H]54)C2` (stereo not given in full): the GI50 in assay [1] is 0.0514 µM and 0.0773 µM; in [2], 0.0176 µM and 0.0134 µM; in [3], below 0.005 µM; in [4], below 0.005 µM; in assay [5], 0.00735 µM; in assay [6] it was 0.00953 µM and 0.0245 µM. In addition, the GI50 was 0.277 µM and 0.416 µM in assay [7]; below 0.005 µM in assay [8]; 0.0182 µM and 0.0211 µM in [9]. The TGI in [1] was 16.7 µM and > 100 µM; in [2], 50 µM and > 100 µM; in [3], 9.27 µM; in assay [4], 1.3 µM; in assay [6] it was 5.82 µM and 0.913 µM; in assay [7], 50 µM and > 100 µM. In addition, the TGI was 0.00611 µM and 0.0135 µM in assay [8]; 5.74 µM and 0.873 µM in [9]; 14.9 µM and > 100 µM in [10].
Regarding `O=C(O)c1ccccc1/C=N/N=C1c2ccccc2-c2ccccc21`, the TGI was above 100 µM in [1]; above 100 µM in assay [2]; 95.5 µM in assay [3]; above 100 µM in assay [4]; 70.2 µM in [5]; above 100 µM in [6]. Moreover, the TGI in assay [7] was above 100 µM; in [8] it was 36 µM; in assay [9] it was above 100 µM; in assay [10], above 100 µM.
With `c1c[nH]c(CN2CCOCC2)n1`, the TGI in assay [1], in assay [2], in [3], in assay [4], in [5] and in [6] was above 100 µM throughout. Besides, the TGI in [7], in assay [8], in assay [9] and in assay [10] was above 100 µM in each case.
In the case of `Cc1ccc(-c2nc3nc(-c4ccc(F)cc4)nc(N4CCCNCC4)c3o2)cc1`, the GI50 in assay [1] is 1.83 µM; in [2] it was 1.82 µM; in [3], 0.256 µM; in assay [4] it was 1.65 µM; in assay [5] it was 1.79 µM; in assay [6] it was 1.86 µM. Besides, the GI50 in [7] is 1.06 µM; in assay [8], 1.55 µM; in assay [9] it was 1.63 µM; in assay [10] it was 1.73 µM. The TGI in assay [1] is 3.56 µM; in assay [2], 3.47 µM; in assay [3] it was 0.813 µM; in assay [4] it was 3.51 µM; in [5], 3.53 µM; in [6], 3.56 µM. The TGI in assay [7] was 2.42 µM; in assay [8], 2.96 µM; in assay [9], 3.11 µM; in assay [10], 3.35 µM.
Regarding `O=S(=O)(CCCl)c1ccc(Cl)cc1`, the GI50 in assay [1] is 6.41 µM; in assay [2] it was 4.79 µM; in assay [3], 3.41 µM; in [4], 1.41 µM; in [5] it was 6.4 µM; in [6], 5.18 µM. In addition, the GI50 in assay [7] is 2.92 µM; in [8] it was 2.84 µM; in assay [9], 2.55 µM; in assay [10], 2.17 µM. The TGI is 21.4 µM in assay [1]; 20.6 µM in [2]; above 100 µM in assay [3]; 3.01 µM in assay [4]; 24 µM in [5]; 22.2 µM in assay [6]. Also, the TGI in [7] is 12.4 µM; in assay [8], 10.6 µM; in assay [9], 9.03 µM; in assay [10], 5.55 µM.
